# Laboratory results: patent US7955808B2, “Bitter taste receptors” (Deutsches Institut für Ernährungsorschung, Stiftung des …, priority 2002, dated 2011)
# Legend:
# [1] = target: T1, hTAS2R10 (Homo sapiens, UniProt Q9NYW0, T156M); test: FLIPR assay, heterologous expression of hTAS2R10; assay type: cell-based; settings: hTAS2R10
# T1 construct: gene-specific primers that span the complete coding region of the individual hTAS2R genes; first 45 amino acids of rat somatostatin type 3 receptor (cell surface-targeting signal) (N); expressed in transfected cells; host or cells: HEK-293T-Gα16gustducin44 cells (alternatively HEK-293 co-transfected with phospholipase-Cβ2 and α-gustducin)
# T1 sequence (Q9NYW0 1-307 T156M): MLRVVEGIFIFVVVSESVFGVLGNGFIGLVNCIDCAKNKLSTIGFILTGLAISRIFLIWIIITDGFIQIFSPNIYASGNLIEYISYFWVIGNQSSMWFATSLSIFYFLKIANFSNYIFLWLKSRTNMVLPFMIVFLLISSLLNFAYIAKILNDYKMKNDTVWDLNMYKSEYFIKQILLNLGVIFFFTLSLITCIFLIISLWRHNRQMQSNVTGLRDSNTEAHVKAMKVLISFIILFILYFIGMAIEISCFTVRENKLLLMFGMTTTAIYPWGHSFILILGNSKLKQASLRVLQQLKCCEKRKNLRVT
# Text: (§1) Transient transfection of TAS2Rs into HEK-293T-Gα16gustducin44 cells.
# [2] = target: T2, hTAS2R46 (Homo sapiens, UniProt P59540); test: FLIPR assay, heterologous expression of hTAS2R46; assay type: cell-based
# T2 construct: gene-specific primers that span the complete coding region of the individual hTAS2R genes; first 45 amino acids of rat somatostatin type 3 receptor (cell surface-targeting signal) (N); expressed in transfected cells; host or cells: HEK-293T-Gα16gustducin44 cells (alternatively HEK-293 co-transfected with phospholipase-Cβ2 and α-gustducin)
# T2 sequence (P59540 with tags, fused parts or gaps limits assumed): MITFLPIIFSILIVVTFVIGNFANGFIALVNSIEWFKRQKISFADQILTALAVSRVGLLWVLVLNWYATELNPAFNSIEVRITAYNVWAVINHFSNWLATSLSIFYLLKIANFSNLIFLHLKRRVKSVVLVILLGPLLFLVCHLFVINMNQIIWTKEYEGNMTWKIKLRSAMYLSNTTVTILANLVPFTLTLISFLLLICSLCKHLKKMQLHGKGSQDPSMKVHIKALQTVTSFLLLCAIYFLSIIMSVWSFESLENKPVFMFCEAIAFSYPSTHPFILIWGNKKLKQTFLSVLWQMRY
# Text: as §1
# [3] = target: T3, hTAS2R48 (Homo sapiens, UniProt P59542); test: FLIPR assay, heterologous expression of hTAS2R48; assay type: cell-based
# T3 construct: gene-specific primers that span the complete coding region of the individual hTAS2R genes; first 45 amino acids of rat somatostatin type 3 receptor (cell surface-targeting signal) (N); expressed in transfected cells; host or cells: HEK-293T-Gα16gustducin44 cells (alternatively HEK-293 co-transfected with phospholipase-Cβ2 and α-gustducin)
# T3 sequence (P59542 1-299): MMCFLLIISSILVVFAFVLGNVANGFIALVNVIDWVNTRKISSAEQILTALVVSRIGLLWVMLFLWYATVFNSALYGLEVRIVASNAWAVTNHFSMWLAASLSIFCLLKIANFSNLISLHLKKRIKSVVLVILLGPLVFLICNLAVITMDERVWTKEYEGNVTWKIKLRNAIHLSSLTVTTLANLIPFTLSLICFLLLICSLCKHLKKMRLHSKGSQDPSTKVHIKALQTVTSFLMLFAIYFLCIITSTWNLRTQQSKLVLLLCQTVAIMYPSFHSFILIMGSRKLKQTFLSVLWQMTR
# Text: as §1
# [4] = target: T4, hTAS2R45 (Homo sapiens, UniProt P59539); test: FLIPR assay, heterologous expression of hTAS2R45; assay type: cell-based
# T4 construct: gene-specific primers that span the complete coding region of the individual hTAS2R genes; first 45 amino acids of rat somatostatin type 3 receptor (cell surface-targeting signal) (N); expressed in transfected cells; host or cells: HEK-293T-Gα16gustducin44 cells (alternatively HEK-293 co-transfected with phospholipase-Cβ2 and α-gustducin)
# T4 sequence (P59539 1-299): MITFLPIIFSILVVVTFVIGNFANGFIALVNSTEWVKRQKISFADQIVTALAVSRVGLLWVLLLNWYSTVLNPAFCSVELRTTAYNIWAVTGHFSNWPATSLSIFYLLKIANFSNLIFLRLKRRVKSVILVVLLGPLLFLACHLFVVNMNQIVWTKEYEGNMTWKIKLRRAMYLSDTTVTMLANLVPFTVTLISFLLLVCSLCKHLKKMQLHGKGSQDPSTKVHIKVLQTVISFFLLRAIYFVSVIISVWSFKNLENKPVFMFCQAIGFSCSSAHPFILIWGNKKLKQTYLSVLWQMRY
# Text: as §1
# [5] = target: hTAS2R44 (Homo sapiens, UniProt P59538, L162M)
# Text: (§2) These cells stably express a chimeric G protein constructed from human Gα16 and rat gustducin. Finally, we seeded the transfected cells at a density of 3×10^3 cells per well into 96-well black-wall, clear-bottom microtiter plates (Greiner).
# (§3) Co-transfection of TAS2Rs with gustducin and phospholipase-Cβ2 into HEK-293 cells. Alternatively, we transfected simultaneously plasmid DNAs encoding one of the TAS2Rs, phospholipase-Cβ2 and α-gustducin into HEK-293 cells using the lipofectamine method. […] Thereafter, the transfected cells were seeded at a density of 3×10^3 cells per well into 96-well black-wall, clear-bottom microtiter plates (Greiner).
# (§4) Thereafter, cells were gently washed in HBS by an automated plate washer (Denley Cellwash, Labsystenms) and transferred to the FLIPR (Molecular Devices). The FLIPR integrates an argon laser excitation source, a 96-well pipettor, and a detection system utilizing a Charged Coupled Device imaging camera. […] Fluorescence data were collected 1 min before and 10 min after stimulation. Data were collected every 6 s before and every 1 s after agonist stimulation. 50 μl of 3× concentrated agonists were delivered within 2 by the integrated 96-well pipettor to the wells containing 100 μl HBS. Agonist responses were quantified using the amplitudes of the fluorescence peaks. We averaged the responses of five wells containing cells expressing the same receptor and that received the same stimulus. Calcium traces were determined in triplicate of mock-transfected cells stimulated with the same concentration of tastant.
# [6] = target: hTAS2R43 (Homo sapiens, UniProt P59537, H212R/W35S)
# Text: as §2, §3, §4
# hTAS2R44, sequence (P59538 whole entry L162M): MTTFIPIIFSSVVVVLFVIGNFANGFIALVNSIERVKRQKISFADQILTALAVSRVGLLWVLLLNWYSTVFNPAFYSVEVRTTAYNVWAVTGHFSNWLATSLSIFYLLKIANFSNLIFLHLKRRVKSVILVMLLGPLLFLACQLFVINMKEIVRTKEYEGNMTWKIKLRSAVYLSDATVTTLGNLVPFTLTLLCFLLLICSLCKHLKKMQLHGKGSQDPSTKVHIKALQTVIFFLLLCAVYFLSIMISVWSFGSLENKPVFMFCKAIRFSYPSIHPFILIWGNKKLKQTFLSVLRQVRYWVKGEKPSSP
# hTAS2R43, sequence (P59537 whole entry W35S/H212R): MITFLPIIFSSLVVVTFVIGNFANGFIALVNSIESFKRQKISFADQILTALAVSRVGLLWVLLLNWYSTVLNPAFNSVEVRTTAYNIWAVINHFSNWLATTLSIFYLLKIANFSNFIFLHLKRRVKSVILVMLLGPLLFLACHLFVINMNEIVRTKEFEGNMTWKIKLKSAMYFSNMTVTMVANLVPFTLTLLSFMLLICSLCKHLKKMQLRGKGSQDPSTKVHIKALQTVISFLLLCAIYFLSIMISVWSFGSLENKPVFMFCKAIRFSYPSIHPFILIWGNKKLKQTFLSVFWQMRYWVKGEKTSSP
Approx. Threshold [1] [mM],receptor activation (in words) [1],Approx. Threshold [2] [mM],receptor activation (in words) [2],Approx. Threshold [3] [mM],receptor activation (in words) [3],Approx. Threshold [4] [mM],receptor activation (in words) [4],Approx. Threshold [5] [mM],receptor activation (in words) [5],Approx. Threshold [6],SMILES
0.01,activated,0.001,activated,0.03,activated,0.003,activated,–,–,–,CC1=C[C@@H]2[C@@H]3C4C(=C(C)[C@@H]3[C@@]13[C@@H]2[C@@](C)(O)CC[C@H]1[C@H](C)C(=O)O[C@@H]13)[C@H]1OC(=O)[C@@H](C)[C@@H]1CC[C@]4(C)O (some centres unmarked) [Absinthine]
–,–,–,–,–,–,–,–,0.5,activated,No response up to 10 mM,CC1=CC(=O)NS(=O)(=O)O1 [Acesulfame K]
